Laboratory results as given in patent US20260232674A1, “METHODS OF TREATING HIDRADENITIS SUPPURATIVA” (Alumis Inc., priority 2023, published 2026).

Experiments:
IFN1 gene expression = assay: IFN gene set expression (RNA-sequencing) in healthy volunteers, Compound A versus placebo, day 14; format: in vivo
Procedure: (§1) A study was conducted to assess IFN1 gene expression in healthy volunteers administered a regimen of Compound A. The data set consists of 48 subjects with transcriptome-wide RNA-sequencing data collected for each subject per time-point. For each subject, time points included a pre-dose at day 1, a pre-dose at day 14, and a 4 hour post-day 14 dose. A Wald test was used to assess the association of the various doses at post-dose day 14 versus placebo. To assess potentially off target effects, a secondary transcriptome-wide analysis was performed. Multiple test correction was completed using a Benjamini-Hochberg cutoff of 0.05 within the primary and secondary analyses separately.
For example FIG. 4 and FIG. 5 show dose-dependent median IFN gene expression levels over time for HERC5, IFI27, IFIT1, RSAD2. […] As shown in FIG. 6 and FIG. 7, SIGLEC1 was decreased after a 14-day regimen of treatment with Compound A.

IFN gene expression = IFN gene expression in healthy volunteers after 7 days 40 mg Compound A twice daily versus placebo; format: in vivo
Procedure: as §1, with “[…] […]” for “For each subject, time points included a pre-dose at day 1, a pre-dose at day 14, and a 4 hour post-day 14 dose. A Wald test was used to assess the association of the various doses at post-dose day 14 versus placebo.”

[1] = as above; format: in vivo; conditions: gene CETP, 40 mg twice daily, versus placebo, healthy volunteers
Procedure: as §1, with “[…] […]” for “For each subject, time points included a pre-dose at day 1, a pre-dose at day 14, and a 4 hour post-day 14 dose. A Wald test was used to assess the association of the various doses at post-dose day 14 versus placebo.”

[2] = test system: transcriptome-wide gene expression; assay: Secondary transcriptome-wide analysis for potentially off target effects, day 14 4 hour post-treatment versus placebo; format: in vivo, healthy volunteers
Procedure: as §1

off target associations after multiple test corrections ([2]; transcriptome-wide, Table 4): no significant off target associations
SMILES: [2H]C([2H])([2H])CC(=O)c1cnc(NC(=O)C2CC2)cc1Nc1cccc(-c2ncn(C([2H])([2H])[2H])n2)c1OC [Compound A, N-(4-((2-Methoxy-3-(1-(methyl-d3)-1H-1,2,4-triazol-3-yl)phenyl)amino)-5-(propanoyl-3,3,3-d3)pyridin-2-yl)cyclopropanecarboxamide]
association of Compound A with SIGLEC1 gene expression (Wald test) (IFN1 gene expression; after 14 days of treatment versus placebo, Table 2): significant association
median IFN gene expression levels for HERC5, IFI27, IFIT1, RSAD2 (IFN1 gene expression; after 14 days, versus placebo, FIG. 4 and FIG. 5, healthy volunteers): substantial decrease
median gene expression levels for SIGLEC1 (IFN1 gene expression; after a 14-day regimen, versus placebo, FIG. 6 and FIG. 7, healthy volunteers): decreased
log2FoldChange CXCL10 (IFN1 gene expression; gene CXCL10, after 14 days of treatment versus placebo, healthy volunteers): −1.589
log2FoldChange EPSTI1 (IFN1 gene expression; gene EPSTI1, after 14 days of treatment versus placebo, healthy volunteers): −0.2266
log2FoldChange IFI27 (IFN1 gene expression; gene IFI27, after 14 days of treatment versus placebo, healthy volunteers): −1.082
log2FoldChange IFI44 (IFN1 gene expression; gene IFI44, after 14 days of treatment versus placebo, healthy volunteers): −0.3773
log2FoldChange IFI44L (IFN1 gene expression; gene IFI44L, after 14 days of treatment versus placebo, healthy volunteers): −1.043
log2FoldChange IFIT1 (IFN1 gene expression; gene IFIT1, after 14 days of treatment versus placebo, healthy volunteers): −1.676
log2FoldChange ISG15 (IFN1 gene expression; gene ISG15, after 14 days of treatment versus placebo, healthy volunteers): −0.8721
log2FoldChange ISG20 (IFN1 gene expression; gene ISG20, after 14 days of treatment versus placebo, healthy volunteers): 0.08851
log2FoldChange MX1 (IFN1 gene expression; gene MX1, after 14 days of treatment versus placebo, healthy volunteers): −1.438
log2FoldChange OAS1 (IFN1 gene expression; gene OAS1, after 14 days of treatment versus placebo, healthy volunteers): −0.1127
log2FoldChange OAS2 (IFN1 gene expression; gene OAS2, after 14 days of treatment versus placebo, healthy volunteers): −0.008935
log2FoldChange OAS3 (IFN1 gene expression; gene OAS3, after 14 days of treatment versus placebo, healthy volunteers): −0.7134
log2FoldChange RSAD2 (IFN1 gene expression; gene RSAD2, after 14 days of treatment versus placebo, healthy volunteers): −0.4713
log2FoldChange SIGLEC1 (IFN1 gene expression; gene SIGLEC1, after 14 days of treatment versus placebo, healthy volunteers): −3.579
log2FoldChange SPATS2L (IFN1 gene expression; gene SPATS2L, after 14 days of treatment versus placebo, healthy volunteers): −0.5117
rank of SIGLEC1 among differentially expressed genes, treated versus placebo (IFN gene expression; 40 mg twice daily, Table 3): top differentially expressed gene
log2FoldChange CHRM3 (IFN gene expression; gene CHRM3, 40 mg twice daily, versus placebo, healthy volunteers): −1.521
log2FoldChange HJURP (IFN gene expression; gene HJURP, 40 mg twice daily, versus placebo, healthy volunteers): 1.007
log2FoldChange OSM (IFN gene expression; gene OSM, 40 mg twice daily, versus placebo, healthy volunteers): 1.157
log2FoldChange SIGLEC1 (IFN gene expression; gene SIGLEC1, 40 mg twice daily, versus placebo, healthy volunteers): −3.626
log2FoldChange SOCS3 (IFN gene expression; gene SOCS3, 40 mg twice daily, versus placebo, healthy volunteers): 1.421
log2FoldChange SYN2 (IFN gene expression; gene SYN2, 40 mg twice daily, versus placebo, healthy volunteers): 2.239
log2FoldChange CETP [1]: 1.503
log2FoldChange CDNF ([2]; gene CDNF, secondary analysis): 1.185
log2FoldChange ENSG00000288643 ([2]; gene ENSG00000288643, secondary analysis): −1.541
log2FoldChange IFI6 ([2]; gene IFI6, secondary analysis): −1.206
log2FoldChange IFIT1 ([2]; gene IFIT1, secondary analysis): −1.676
log2FoldChange JPH4 ([2]; gene JPH4, secondary analysis): −1.043
log2FoldChange LRP1 ([2]; gene LRP1, secondary analysis): −1.314
log2FoldChange LRRC75B ([2]; gene LRRC75B, secondary analysis): −1.205
log2FoldChange MX1 ([2]; gene MX1, secondary analysis): −1.438
log2FoldChange SIGLEC1 ([2]; gene SIGLEC1, secondary analysis): −3.579
